Assay results from PubChem BioAssay AID256 (DTP/NCI, 2004).
Values joined by “and” are separate entries in the source; they are usually repeats but may differ in a detail not shown here. Identical values can stand only once. Inconclusive results and toxic doses are left out. The calls were made as follows: active = survival T/C of 150% or more; inactive = T/C below 125% in these data.

Test system: CD2F1 mice, L1210 leukemia ip, survival T/C
Assay: NCI In Vivo Anticancer Drug Screen. Data for tumor model L1210 Leukemia (intraperitoneal) in CD2F1 (CDF1) mice
Details: higher = longer survival
Outline: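 Ratio T/C, where T is the treated-group value and C the vehicle-dosed control value, from mice implanted with a transplantable tumor.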

[1] = endpoint: mean survival time, dose: 100.0 mg/kg/injection, schedule: Q01DX001 (ip), vehicle: saline with Tween-80
[2] = endpoint: mean survival time, dose: 200.0 mg/kg/injection, schedule: Q01DX001 (ip), vehicle: saline with Tween-80
[3] = endpoint: mean survival time, dose: 400.0 mg/kg/injection, schedule: Q01DX001 (ip), vehicle: saline with Tween-80
[4] = endpoint: mean survival time, dose: 100.0 mg/kg/injection, schedule: Q01DX009 (ip), vehicle: saline with Tween-80
[5] = endpoint: mean survival time, dose: 200.0 mg/kg/injection, schedule: Q01DX009 (ip), vehicle: saline with Tween-80

Measured: T/C

COc1ccc2c(ccc3oc([N+](=O)[O-])cc32)c1
inactive: endpoint: median survival time, dose: 6.25 mg/kg/injection, schedule: Q01DX009 (ip), vehicle: saline with Tween-80 105 % of control | endpoint: median survival time, dose: 12.5 mg/kg/injection, schedule: Q01DX009 (ip), vehicle: saline with Tween-80 105 % of control | endpoint: median survival time, dose: 25.0 mg/kg/injection, schedule: Q01DX009 (ip), vehicle: saline with Tween-80 105 % of control | endpoint: median survival time, dose: 50.0 mg/kg/injection, schedule: Q01DX009 (ip), vehicle: saline with Tween-80 105 % of control | endpoint: median survival time, dose: 100.0 mg/kg/injection, schedule: Q01DX009 (ip), vehicle: saline with Tween-80 107 % of control | endpoint: median survival time, dose: 200.0 mg/kg/injection, schedule: Q01DX009 (ip), vehicle: saline with Tween-80 92 % of control

CN(C)CCCNCC#CCNCCCN(C)C
inactive: endpoint: mean survival time, dose: 50.0 mg/kg/injection, schedule: Q01DX009 (ip), vehicle: saline 100 % of control | endpoint: mean survival time, dose: 100.0 mg/kg/injection, schedule: Q01DX009 (ip), vehicle: saline 98 % of control | endpoint: mean survival time, dose: 100.0 mg/kg/injection, schedule: Q04DX003 (ip), vehicle: saline 101 % of control | endpoint: mean survival time, dose: 200.0 mg/kg/injection, schedule: Q01DX009 (ip), vehicle: saline 96 % of control | endpoint: mean survival time, dose: 200.0 mg/kg/injection, schedule: Q04DX003 (ip), vehicle: saline 95 % of control

CS(=O)(=O)Cc1cnc(N)nc1-c1ccccc1
inactive: [1] 94 % of control | [2] 97 % of control | [3] 94 % of control

COc1cc2cc(c1Cl)N(C)C(=O)C[C@H](OC(=O)[C@H](C)N(C)C(C)=O)[C@]1(C)O[C@H]1[C@H](C)[C@@H]1C[C@@](O)(NC(=O)O1)[C@H](OC)C=C/C=C(\C)C2
inactive: endpoint: mean survival time, dose: 0.5 mg/kg/injection, schedule: Q01DX009 (ip), vehicle: saline 104 % of control | endpoint: mean survival time, dose: 1.0 mg/kg/injection, schedule: Q01DX009 (ip), vehicle: saline 109 % of control | endpoint: mean survival time, dose: 2.0 mg/kg/injection, schedule: Q01DX009 (ip), vehicle: saline 107 % of control | endpoint: mean survival time, dose: 32.0 mg/kg/injection, schedule: Q01DX009 (ip), vehicle: saline 91 % of control | endpoint: mean survival time, dose: 8.0 micrograms/kg/injection, schedule: Q01DX009 (ip), vehicle: saline + alcohol 111 % of control | endpoint: mean survival time, dose: 12.0 micrograms/kg/injection, schedule: Q01DX009 (ip), vehicle: saline + alcohol 109 % of control | endpoint: mean survival time, dose: 16.0 micrograms/kg/injection, schedule: Q01DX009 (ip), vehicle: saline + alcohol 112 % of control | endpoint: mean survival time, dose: 32.0 micrograms/kg/injection, schedule: Q01DX009 (ip), vehicle: saline + alcohol 122 % of control | endpoint: mean survival time, dose: 200.0 micrograms/kg/injection, schedule: Q01DX009 (ip), vehicle: saline + alcohol 120 % of control | endpoint: median survival time, dose: 4.0 micrograms/kg/injection, schedule: Q01DX009 (ip), vehicle: clinical formulation 117 % of control | endpoint: median survival time, dose: 8.0 micrograms/kg/injection, schedule: Q01DX009 (ip), vehicle: clinical formulation 117 % of control | endpoint: median survival time, dose: 16.0 micrograms/kg/injection, schedule: Q04DX003 (ip), vehicle: clinical formulation 112 % of control | endpoint: median survival time, dose: 32.0 micrograms/kg/injection, schedule: Q04DX003 (ip), vehicle: clinical formulation 117 % of control | endpoint: median survival time, dose: 64.0 micrograms/kg/injection, schedule: Q01DX001 (ip), vehicle: clinical formulation 110 % of control | endpoint: median survival time, dose: 512.0 micrograms/kg/injection, schedule: Q04DX003 (ip), vehicle: clinical formulation 96 % of control

NNc1ccccc1-c1nc2ccccc2[nH]1
inactive: endpoint: mean survival time, dose: 75.0 mg/kg/injection, schedule: Q01DX001 (ip), vehicle: saline 96 % of control | endpoint: mean survival time, dose: 150.0 mg/kg/injection, schedule: Q01DX001 (ip), vehicle: saline 96 % of control | endpoint: mean survival time, dose: 300.0 mg/kg/injection, schedule: Q01DX001 (ip), vehicle: saline 108 % of control

CCC(=O)c1cccc([N+](=O)[O-])c1
inactive: [1] 100 % of control | [4] 96 % of control | endpoint: mean survival time, dose: 100.0 mg/kg/injection, schedule: Q04DX003 (ip), vehicle: saline with Tween-80 102 % of control | [2] 104 % of control | [5] 97 % of control | endpoint: mean survival time, dose: 200.0 mg/kg/injection, schedule: Q04DX003 (ip), vehicle: saline with Tween-80 102 % of control | [3] 93 % of control | endpoint: mean survival time, dose: 400.0 mg/kg/injection, schedule: Q01DX009 (ip), vehicle: saline with Tween-80 97 % of control | endpoint: mean survival time, dose: 400.0 mg/kg/injection, schedule: Q04DX003 (ip), vehicle: saline with Tween-80 98 % of control

CCCCN1C(=O)C(=O)N(c2ccc(NC(C)=O)cc2)C1=O
inactive: endpoint: mean survival time, dose: 50.0 mg/kg/injection, schedule: Q01DX009 (ip), vehicle: saline with Tween-80 93 % of control | [4] 89 % of control | [5] 89 % of control

CN=NNc1ccc(C(=O)NC(C)C)cc1
inactive: endpoint: mean survival time, dose: 25.0 mg/kg/injection, schedule: Q01DX009 (ip), vehicle: DMSO 112 % of control | endpoint: mean survival time, dose: 25.0 mg/kg/injection, schedule: Q01DX009 (ip), vehicle: other 110 % of control | endpoint: mean survival time, dose: 50.0 mg/kg/injection, schedule: Q01DX009 (ip), vehicle: DMSO 114 % of control | endpoint: mean survival time, dose: 50.0 mg/kg/injection, schedule: Q01DX009 (ip), vehicle: other 102 % of control and 109 % of control | endpoint: mean survival time, dose: 100.0 mg/kg/injection, schedule: Q01DX009 (ip), vehicle: other 107 % of control | endpoint: mean survival time, dose: 200.0 mg/kg/injection, schedule: Q01DX009 (ip), vehicle: DMSO 86 % of control
